The source of these data is ChEMBL document CHEMBL4041469, “The replacement of the 2-methoxy substituent of N-((6,6-diphenyl-1,4-dioxan-2-yl)methyl)-2-(2-methoxyphenoxy)ethan-1-amine improves the selectivity for 5-HT1A receptor over α1-adrenoceptor and D2-like receptor subtypes” (Eur J Med Chem, 2017).

Activity calls are given as the source filed them. The rule behind the calls is not given here.

Experiment [1] has as its target T1, Alpha-1B adrenergic receptor (Homo sapiens, UniProt P35368).
T1 sequence (P35368 whole entry): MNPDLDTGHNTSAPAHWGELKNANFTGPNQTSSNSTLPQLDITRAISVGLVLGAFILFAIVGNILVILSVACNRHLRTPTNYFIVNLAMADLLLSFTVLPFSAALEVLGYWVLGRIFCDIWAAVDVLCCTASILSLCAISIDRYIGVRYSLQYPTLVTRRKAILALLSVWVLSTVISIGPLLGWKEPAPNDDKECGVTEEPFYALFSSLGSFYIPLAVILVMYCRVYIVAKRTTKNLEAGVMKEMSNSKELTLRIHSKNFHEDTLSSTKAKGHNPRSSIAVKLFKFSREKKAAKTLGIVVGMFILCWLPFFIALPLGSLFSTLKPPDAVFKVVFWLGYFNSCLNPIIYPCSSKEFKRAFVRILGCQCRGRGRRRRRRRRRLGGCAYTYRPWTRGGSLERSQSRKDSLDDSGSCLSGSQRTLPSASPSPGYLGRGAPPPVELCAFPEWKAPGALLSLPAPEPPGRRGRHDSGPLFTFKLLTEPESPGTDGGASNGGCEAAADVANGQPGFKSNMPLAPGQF
Put plainly: Displacement of [3H]prazosin from recombinant human alpha-1b adrenergic receptor expressed in CHO cell membranes after 30 mins by liquid scintillation counting method.

Experiment [2] addresses T2, Alpha-1A adrenergic receptor (Homo sapiens, UniProt P35348).
T2 sequence (P35348 whole entry): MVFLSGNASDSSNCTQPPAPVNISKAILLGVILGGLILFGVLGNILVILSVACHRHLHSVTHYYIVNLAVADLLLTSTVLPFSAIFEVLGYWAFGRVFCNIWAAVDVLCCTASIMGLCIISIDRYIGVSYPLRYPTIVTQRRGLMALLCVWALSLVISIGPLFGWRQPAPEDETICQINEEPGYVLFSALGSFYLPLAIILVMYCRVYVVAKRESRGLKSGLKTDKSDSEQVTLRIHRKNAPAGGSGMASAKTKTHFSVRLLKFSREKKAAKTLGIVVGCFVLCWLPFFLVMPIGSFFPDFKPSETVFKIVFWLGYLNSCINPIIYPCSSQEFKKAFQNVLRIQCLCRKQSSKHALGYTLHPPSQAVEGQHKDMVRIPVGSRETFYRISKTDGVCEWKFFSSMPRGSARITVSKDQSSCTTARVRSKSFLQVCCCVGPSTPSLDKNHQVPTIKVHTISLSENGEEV
Put plainly: Displacement of [3H]prazosin from recombinant human alpha-1a adrenergic receptor expressed in CHO cell membranes after 30 mins by liquid scintillation counting method.

Experiment [3] addresses T3, Alpha-1D adrenergic receptor (Homo sapiens, UniProt P25100).
T3 sequence (P25100 whole entry): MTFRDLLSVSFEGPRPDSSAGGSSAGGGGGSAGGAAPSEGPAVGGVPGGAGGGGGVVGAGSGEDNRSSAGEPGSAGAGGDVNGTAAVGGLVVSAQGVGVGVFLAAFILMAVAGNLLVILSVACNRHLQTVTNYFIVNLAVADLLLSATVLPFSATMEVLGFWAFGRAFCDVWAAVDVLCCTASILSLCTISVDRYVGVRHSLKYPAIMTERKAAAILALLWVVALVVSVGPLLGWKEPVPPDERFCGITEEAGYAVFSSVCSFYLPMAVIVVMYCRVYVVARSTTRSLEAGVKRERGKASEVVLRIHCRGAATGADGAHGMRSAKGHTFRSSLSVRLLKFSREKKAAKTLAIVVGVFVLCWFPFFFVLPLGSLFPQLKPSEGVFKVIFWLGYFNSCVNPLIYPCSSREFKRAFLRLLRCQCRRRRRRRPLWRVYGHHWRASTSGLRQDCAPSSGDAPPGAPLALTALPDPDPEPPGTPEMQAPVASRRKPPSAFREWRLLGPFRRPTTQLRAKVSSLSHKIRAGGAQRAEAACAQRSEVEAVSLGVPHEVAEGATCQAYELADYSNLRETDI
Put plainly: Displacement of [3H]prazosin from recombinant human alpha-1d adrenergic receptor expressed in CHO cell membranes after 30 mins by liquid scintillation counting method. On the technique in general: Loss of bound radioactivity is the signal in a displacement assay; it reports binding, not function.

The target of experiment [4] is T4, 5-hydroxytryptamine receptor 1A (Homo sapiens, UniProt P08908).
T4 sequence (P08908 whole entry): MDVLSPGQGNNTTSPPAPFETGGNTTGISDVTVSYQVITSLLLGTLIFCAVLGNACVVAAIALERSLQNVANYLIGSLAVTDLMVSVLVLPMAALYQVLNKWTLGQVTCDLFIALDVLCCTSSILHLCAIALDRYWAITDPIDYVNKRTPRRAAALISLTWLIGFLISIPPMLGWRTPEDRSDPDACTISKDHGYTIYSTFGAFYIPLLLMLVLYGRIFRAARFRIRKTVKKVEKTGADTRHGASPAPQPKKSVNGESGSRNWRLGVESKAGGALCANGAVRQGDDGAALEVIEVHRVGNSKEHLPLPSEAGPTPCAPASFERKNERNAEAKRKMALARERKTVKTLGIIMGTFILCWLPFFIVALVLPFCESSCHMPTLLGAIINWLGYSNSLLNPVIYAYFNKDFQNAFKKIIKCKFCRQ
Put plainly: Displacement of [3H]8-OH-DPAT from recombinant human 5HT1A receptor expressed in human HeLa cell membranes after 30 mins by liquid scintillation counting method.

The target of experiment [5] is T5, 5-hydroxytryptamine receptor 1A (Homo sapiens) (UniProt P08908).
T5 sequence (whole entry): T4 sequence (P08908 whole entry)
The experiment in a line: Agonist activity at recombinant human 5HT1A receptor expressed in human HeLa cell membranes assessed as stimulation of [35S]GTPgammaS binding preincubated for 20 mins followed by [35S]GTPgammaS addition measured after 30 mins by liquid scintillation counting method. Format: functional. For orientation: Binding of GTPγS marks nucleotide exchange on a G protein.

Experiment [6] concerns the target T5, 5-hydroxytryptamine receptor 1A (Homo sapiens). The experiment in a line: Agonist activity at recombinant human 5HT1A receptor expressed in human HeLa cell membranes assessed as stimulation of [35S]GTPgammaS binding up to 10 uM preincubated for 20 mins followed by [35S]GTPgammaS addition measured after 30 mins by liquid scintillation counting method relative to 5-HT. Format: functional.

In experiment [7] the test system is Mus musculus. The experiment in a line: Anxiolytic activity in CD-1 mouse assessed as increase in time spent in light area at 2.5 mg/kg, ip administered 30 mins prior to test by light/dark exploration test. Format: functional, organism-based.
The subject of experiment [8] is Mus musculus. The experiment in a line: Anxiolytic activity in CD-1 mouse assessed as increase in latency time to enter dark area at 2.5 mg/kg, ip administered 30 mins prior to test by light/dark exploration test. Format: functional, organism-based.
Experiment [9] can be described thus: Selectivity index, ratio of Ki for recombinant human alpha-1d adrenergic receptor expressed in CHO cell membranes to Ki for recombinant human 5HT1A receptor expressed in human HeLa cell membranes.
In experiment [10] the target is D(2) dopamine receptor (Homo sapiens, UniProt P14416). Put plainly: Displacement of [3H]N-methylspiperone from recombinant human D2 receptor expressed in HEK293 cell membranes after 1 hr by liquid scintillation counting method.
D(2) dopamine receptor, sequence (P14416 whole entry): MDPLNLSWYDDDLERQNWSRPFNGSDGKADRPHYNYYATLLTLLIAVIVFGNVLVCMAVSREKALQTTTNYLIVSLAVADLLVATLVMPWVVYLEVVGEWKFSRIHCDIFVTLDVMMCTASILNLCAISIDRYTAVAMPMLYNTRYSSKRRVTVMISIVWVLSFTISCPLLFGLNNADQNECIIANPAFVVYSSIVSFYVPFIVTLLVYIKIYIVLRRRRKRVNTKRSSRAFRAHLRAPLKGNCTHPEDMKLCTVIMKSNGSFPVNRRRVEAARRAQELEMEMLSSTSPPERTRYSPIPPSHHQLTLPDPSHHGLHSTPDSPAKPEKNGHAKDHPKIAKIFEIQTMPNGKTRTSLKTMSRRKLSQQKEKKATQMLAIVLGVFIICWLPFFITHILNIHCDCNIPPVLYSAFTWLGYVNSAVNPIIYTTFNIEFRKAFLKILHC
Experiment [11] deals with D(3) dopamine receptor (Homo sapiens, UniProt P35462). Put plainly: Displacement of [3H]N-methylspiperone from recombinant human D3 receptor expressed in HEK293 cell membranes after 1 hr by liquid scintillation counting method.
D(3) dopamine receptor, sequence (P35462 whole entry): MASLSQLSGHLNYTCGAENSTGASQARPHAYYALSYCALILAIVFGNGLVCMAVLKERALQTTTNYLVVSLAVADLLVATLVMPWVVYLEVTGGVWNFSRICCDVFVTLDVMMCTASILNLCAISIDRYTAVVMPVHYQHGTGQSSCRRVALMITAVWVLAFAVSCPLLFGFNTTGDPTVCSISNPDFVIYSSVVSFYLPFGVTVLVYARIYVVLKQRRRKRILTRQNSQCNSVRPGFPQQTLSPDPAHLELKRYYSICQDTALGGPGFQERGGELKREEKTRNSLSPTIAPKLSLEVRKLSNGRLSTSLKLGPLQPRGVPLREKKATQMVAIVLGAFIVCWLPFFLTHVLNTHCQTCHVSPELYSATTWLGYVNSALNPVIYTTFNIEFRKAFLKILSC
In experiment [12] the target is T6, D(4) dopamine receptor (Homo sapiens, UniProt P21917).
T6 sequence (P21917 whole entry): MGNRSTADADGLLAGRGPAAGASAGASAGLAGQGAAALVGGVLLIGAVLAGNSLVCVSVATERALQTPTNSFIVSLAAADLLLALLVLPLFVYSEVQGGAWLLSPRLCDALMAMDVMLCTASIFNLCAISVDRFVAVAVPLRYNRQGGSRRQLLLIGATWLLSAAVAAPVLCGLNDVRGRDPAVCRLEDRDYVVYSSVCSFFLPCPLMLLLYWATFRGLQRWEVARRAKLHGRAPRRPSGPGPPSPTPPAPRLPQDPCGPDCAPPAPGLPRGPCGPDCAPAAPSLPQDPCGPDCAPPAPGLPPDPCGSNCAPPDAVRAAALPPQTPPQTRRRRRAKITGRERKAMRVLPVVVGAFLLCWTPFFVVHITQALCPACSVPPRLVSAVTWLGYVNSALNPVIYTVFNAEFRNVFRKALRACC
Put plainly: Displacement of [3H]N-methylspiperone from recombinant human D4 receptor expressed in HEK293 cell membranes after 1 hr by liquid scintillation counting method.

Experiment [13] in a line: Selectivity index, ratio of Ki for recombinant human D2 receptor expressed in HEK293 cell membranes to Ki for recombinant human 5HT1A receptor expressed in human HeLa cell membranes.
A short description of experiment [14]: Selectivity index, ratio of Ki for recombinant human D3 receptor expressed in HEK293 cell membranes to Ki for recombinant human 5HT1A receptor expressed in human HeLa cell membranes.
Experiment [15] can be described thus: Selectivity index, ratio of Ki for recombinant human D4 receptor expressed in HEK293 cell membranes to Ki for recombinant human 5HT1A receptor expressed in human HeLa cell membranes.
A short description of experiment [16]: Selectivity index, ratio of Ki for recombinant human alpha-1a adrenergic receptor expressed in CHO cell membranes to Ki for recombinant human 5HT1A receptor expressed in human HeLa cell membranes.
A short description of experiment [17]: Selectivity index, ratio of Ki for recombinant human alpha-1b adrenergic receptor expressed in CHO cell membranes to Ki for recombinant human 5HT1A receptor expressed in human HeLa cell membranes.

In the case of `Cc1ccccc1OCCNCC1COCC(c2ccccc2)(c2ccccc2)O1` (racemic), the Ki in [1] was 178 nM; in experiment [2] it was 170 nM; in experiment [3], 5.01 nM; in experiment [4] it was 1.12 nM. Further, in experiment [5], the pD2 was 8.73. The Emax in experiment [6] stood at 59.7%.
Take `CN1C(=O)CN=C(c2ccccc2)c2cc(Cl)ccc21`: the outcome in experiment [7] and in [8] was Active.
On to `COc1cccc(OC)c1OCCNC[C@@H]1COCC(c2ccccc2)(c2ccccc2)O1`, for which the pD2 in [5] was 5.88.
Regarding `Oc1ccccc1OCCNCC1COCC(c2ccccc2)(c2ccccc2)O1` (racemic), the Ki was 372 nM in [1]; 195 nM in experiment [2]; 77.6 nM in experiment [3]; 0.692 nM in [4]; 15.5 nM in experiment [10]; 33.9 nM in experiment [11]. Further, in experiment [12], the inhibition constant (Ki) is 36.3 nM. The pD2 in experiment [5] amounted to 7.8. The Emax in [6] stood at 65.6%. In addition, the “Ratio Ki” value in [9] is 112; in [13] it was 22; in experiment [14], 49; in experiment [15], 53.
With `O=[N+]([O-])c1ccccc1OCCNCC1COCC(c2ccccc2)(c2ccccc2)O1` (racemic), the Ki in [1] is 251 nM; in [2], 117 nM; in experiment [3], 6.61 nM; in [4], 0.562 nM. In experiment [5], the pD2 is 8.93. Besides, the maximal response (Emax) in experiment [6] was in the range of 82.5 to 82.6%.
Take `COc1ccccc1OCCNCC1COCC(c2ccccc2)(c2ccccc2)O1` (racemic): the pD2 in [5] amounted to 9.4. Moreover, the “Ratio Ki” value came out at 42 in experiment [16]; 85 in experiment [17]; 2 in experiment [9]; 19 in experiment [13]; 20 in [14]; 13 in experiment [15]. The Ki is 12.3 nM in [10], 13.2 nM in [11] and 8.32 nM in experiment [12].
Take `COc1ccccc1OCCNC[C@@H]1CO[C@H](c2ccccc2)CO1` (racemic): the pD2 in experiment [5] came to 7.88. In [6], the Emax stood at 85.5%.
Take `COc1ccccc1OCCNC[C@@H]1COCC(c2ccccc2)(c2ccccc2)O1`: the pD2 in experiment [5] turned out to be 7.7.
With `Clc1ccccc1OCCNCC1COCC(c2ccccc2)(c2ccccc2)O1` (racemic), the Ki was 120 nM in experiment [1], 115 nM in experiment [2], 5.89 nM in [3] and 0.794 nM in experiment [4]. Besides, in experiment [5], the pD2 came out at 8.7. In experiment [6], the Emax came out at 66%.
As for `COc1ccccc1OCCNC[C@@H]1COC[C@H](c2ccccc2)O1` (racemic), in experiment [6], the Emax turned out to be 78.1%.
`COc1cccc(OC)c1OCCNCC1COCC(c2ccccc2)(c2ccccc2)O1` (racemic): the pD2 in experiment [5] turned out to be 8.28.
With `COc1cccc(OC)c1OCCNC[C@H]1COCC(c2ccccc2)(c2ccccc2)O1`, the pD2 in [5] came out at 8.3.
On the same count and under the same terms, the value for `COc1ccccc1OCCNC[C@H]1COCC(c2ccccc2)(c2ccccc2)O1` was 9.19.
Regarding `c1ccc(C2(c3ccccc3)COCC(CNCCOc3ccccn3)O2)cc1` (racemic), the Ki in experiment [1] was 115 nM; in [2], 155 nM; in experiment [3], 5.5 nM; in experiment [4], 0.891 nM. In experiment [5], the pD2 was 8.02. In addition, in [6], the Emax amounted to 63.9%.
With `COc1ccccc1OCCNCC1COC(c2ccccc2)(c2ccccc2)CO1` (racemic), the Ki in experiment [4] was 7.59 nM.
On the same count and under the same terms, the value for `c1ccc(OCCNCC2COC(c3ccccc3)(c3ccccc3)CO2)cc1` (racemic) was 37.2 nM; that for `COc1cccc(OC)c1OCCNCC1COC(c2ccccc2)(c2ccccc2)CO1` (racemic) was 229 nM.
With `O=C1CC2(CCCC2)CC(=O)N1CCN1CCN(c2ccccc2O)CC1`, the Ki in experiment [3] is 16.2 nM.
Consider `COc1ccccc1N1CCN(CCN2C(=O)CC3(CCCC3)CC2=O)CC1`, for which the pD2 in [5] is 9.27.

One may read the Ki as a measure of affinity in units of concentration, obtained from inhibition or displacement. Broadly, the Emax is the size of the effect at its maximum, as opposed to the concentration needed.
